Residues, ends and D or L forms follow the SMILES beside them. *: point of attachment. Cbz = O=C(OCc1ccccc1)*
How the values were obtained:
NDV F48E9 [1] = assay: microbe, parasite or virus in culture; type: cell-based, Newcastle disease virus; details: for IC50: avian paramyxovirus 1, 24 h
IFN-β = type: cell-based
β-catenin = type: cell-based
[2] = tested on: NDV Blackbird/China/08(IX); assay: microbe, parasite or virus in culture; type: cell-based, Newcastle disease virus; details: avian paramyxovirus 1, 24 h, read-out: IC50 Blackbird/China/08(IX)
[3] = tested on: NDV PPMV-1/SX-01/Ch/15(VI); assay: microbe, parasite or virus in culture; type: cell-based, Newcastle disease virus; details: avian paramyxovirus 1, 24 h, read-out: IC50 PPMV-1/SX-01/Ch/15(VI)
NDV La sota (II) = assay: microbe, parasite or virus in culture; type: cell-based, Newcastle disease virus; details: avian paramyxovirus 1, 24 h, read-out: IC50 La sota (II)
in vitro = details: chicken
HSP90β [4] = target: T1, HSP90β (Gallus gallus, UniProt Q04619); assay: Cellular thermal shift assay (CETSA), HSP90β; type: binding; details: 200 μM, DF-1 cell lysate
T1 construct: endogenous in cells; host or cells: DF-1 cell lysate
T1 sequence (Q04619 whole entry): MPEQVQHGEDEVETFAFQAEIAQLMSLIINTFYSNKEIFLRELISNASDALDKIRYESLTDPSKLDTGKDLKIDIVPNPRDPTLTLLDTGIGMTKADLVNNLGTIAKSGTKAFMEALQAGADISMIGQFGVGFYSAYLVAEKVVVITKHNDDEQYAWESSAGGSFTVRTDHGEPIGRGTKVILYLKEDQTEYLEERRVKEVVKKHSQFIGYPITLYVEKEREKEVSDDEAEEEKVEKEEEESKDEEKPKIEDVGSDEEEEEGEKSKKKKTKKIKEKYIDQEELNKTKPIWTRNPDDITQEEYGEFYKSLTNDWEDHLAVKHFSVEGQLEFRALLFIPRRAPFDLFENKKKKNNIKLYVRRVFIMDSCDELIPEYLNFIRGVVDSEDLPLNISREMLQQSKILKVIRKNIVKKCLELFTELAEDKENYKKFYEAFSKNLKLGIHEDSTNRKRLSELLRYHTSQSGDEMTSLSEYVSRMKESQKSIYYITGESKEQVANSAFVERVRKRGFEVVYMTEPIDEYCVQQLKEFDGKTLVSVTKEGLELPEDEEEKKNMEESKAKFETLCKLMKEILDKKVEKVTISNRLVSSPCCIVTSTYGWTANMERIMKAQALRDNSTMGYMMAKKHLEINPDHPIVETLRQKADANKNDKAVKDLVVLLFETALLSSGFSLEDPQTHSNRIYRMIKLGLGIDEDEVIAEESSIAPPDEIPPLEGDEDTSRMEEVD

chicken IFN-β promoter = type: cell-based
NDV F48E9 [5] = type: cell-based, Newcastle disease virus
[6] = tested on: genes downstream of the Wnt/β-catenin pathway; type: cell-based
NDV F48E9 [7] = type: cell-based, Newcastle disease virus; remark: listed apart in the source
HSP90β [8] = target: T1, HSP90β; assay: Drug affinity responsive target stability (DARTS), HSP90β; type: binding; details: 200 μM, DF-1 cell lysate, 50 ng of pronase
OASL = type: cell-based
Wnt/β-catenin pathway = type: cell-based
AIV = assay: microbe, parasite or virus in culture; type: cell-based, avian influenza virus
NP, P protein = type: cell-based, Newcastle disease virus
VSV = assay: microbe, parasite or virus in culture; type: cell-based, vesicular stomatitis virus
PRRSV = assay: microbe, parasite or virus in culture; type: cell-based, porcine reproductive and respiratory syndrome virus
MX1 = type: cell-based
GSK-3β [9] = type: binding
[10] = tested on: PPRV, CDV, VSV, PRRSV, AIV, PRV; assay: organism not typed; type: cell-based; details: read-out: IC50 against these viruses (PPRV, CDV, VSV, PRRSV, AIV, PRV)
PPRV = assay: microbe, parasite or virus in culture; type: cell-based, peste des petits ruminants virus
NDV F48E9 [11] = type: cell-based, Newcastle disease virus; remark: listed apart in the source
CDV = assay: microbe, parasite or virus in culture; type: cell-based, canine distemper virus
GSK-3β [12] = type: binding; remark: listed apart in the source
F48E9 L protein = type: cell-based, Newcastle disease virus
PRV = assay: microbe, parasite or virus in culture; type: cell-based, pseudorabies virus

C=CCNC1=C2C[C@@H](C)C[C@H](OC)[C@H](O)[C@@H](C)/C=C(\C)[C@H](OC(N)=O)[C@@H](OC)/C=C\C=C(/C)C(=O)NC(=CC1=O)C2=O [17-AAG]
reduction of infectious virus particle production (NDV F48E9 [1]): 4.19 Log

[Cl-].[Li+] [LiCl, reference compound]
expression of IFN-β (IFN-β): enhanced
reduction in infectious virus particle production (NDV F48E9 [1]): 2.69 Log

CC(C)C[C@@H](C=O)NC(=O)[C@H](CC(C)C)NC(=O)[C@H](CC(C)C)NC(=O)OCc1ccccc1 [MG-132] (Cbz-Leu-Leu-Leu-aldehyde)
amounts of β-catenin in NDV-infected cells (β-catenin): significantly restored

NC(=O)c1ncn([C@@H]2O[C@H](CO)[C@@H](O)[C@H]2O)n1 [Ribavirin, reference compound]
IC50 [2]: 10400 ± 2850 nM
IC50 [3]: 11600 ± 2130 nM
IC50 (NDV F48E9 [1]): 8620 ± 1440 nM
IC50 (NDV La sota (II)): 7970 ± 1590 nM

CCCCn1c2cc(O)ccc2c2ccnc(C)c21 [compound 11, 9-butyl-harmol]
CC50 (in vitro): > 50000 nM
thermal stability of cellular HSP90β (CETSA) (HSP90β [4]): increased the thermal stability
IFN-β promoter activity with NDV infection (chicken IFN-β promoter): 2.89 fold
IFN-β promoter activity without NDV infection (chicken IFN-β promoter): 4.90 fold
viral inhibition in time-of-addition study (NDV F48E9 [5]): significant viral inhibition
MYC upregulation (transcriptome) [6]: 2.1287 fold
PPARgamma upregulation (transcriptome) [6]: 2.7893 fold
WISP1 upregulation (transcriptome) [6]: 5.2201 fold
IC50 [2]: 630 ± 300 nM
NDV adsorption (NDV F48E9 [7]): not inhibited
pronase-induced digestion of HSP90β (DARTS) (HSP90β [8]): prevented
expression of OASL upon F48E9 infection (OASL): 2.51 fold
TOPFlash/FOPFlash luciferase activity (Wnt/β-catenin pathway): significantly activated
reduction in mRNA expression level of AIV (AIV): > 80%
IC50 (AIV; unidentified influenza virus, A549, 24 h, read-out: IC50 AIV): 530 ± 180 nM
expression of NP and expression of P (NP, P protein): not affected
IC50 [3]: 710 ± 260 nM
reduction in mRNA expression level of VSV (VSV): > 80%
IC50 (VSV; Vesicular stomatitis virus, BHK-21, 24 h, read-out: IC50 VSV): 430 ± 160 nM
reduction in mRNA expression level of PRRSV (PRRSV): > 80%
IC50 (PRRSV; Porcine reproductive and respiratory syndrome virus, MARC145, 24 h, read-out: IC50 PRRSV): 540 ± 150 nM
expression of MX1 upon F48E9 infection (MX1): 3.13 fold
proteolysis of GSK-3β by pronase (DARTS) (GSK-3β [9]): less sensitive to proteolysis
IC50 [10]: 380 to 810 nM
inhibitory rate (reduction) against PPRV (PPRV): higher than 99%
reduction of PPRV mRNA (PPRV): 100 fold
IC50 (PPRV; peste-des-petits-ruminants virus, Vero, 24 h, read-out: IC50 PPRV): 380 ± 60 nM
entry of NDV (NDV F48E9 [11]): no effect
inhibitory rate (reduction) against CDV (CDV): higher than 99%
reduction of CDV mRNA (CDV): 100 fold
IC50 (CDV; canine distemper virus, Vero, 24 h, read-out: IC50 CDV): 400 ± 120 nM
thermal stability of GSK-3β (CETSA) (GSK-3β [12]): strongly changed the thermal stability
expression of IFN-β with NDV infection (IFN-β): 1.95 fold
expression of IFN-β without NDV infection (IFN-β): 3.04 fold
inhibitory rate (reduction compared to DMSO-treated cells), primary screening (NDV F48E9 [1]): higher than 99%
reduction in infectious virus particle production, high dose of NDV (NDV F48E9 [1]): 3.08 Log
reduction of infectious virus particle production (NDV F48E9 [1]): 5.26 Log
IC50 (NDV F48E9 [1]): 490 ± 110 nM
expression of L (F48E9 L protein): significant reduction
IC50 (NDV La sota (II)): 580 ± 80 nM
reduction of mRNA of PRV (PRV): 66.83%
IC50 (PRV; Suid alphaherpesvirus 1, BHK-21, 24 h, read-out: IC50 PRV): 810 ± 110 nM

COc1ccc2c(c1)[nH]c1c(C)nccc12 [harmine, reference compound]
effect on NDV proliferation (harmine) (NDV F48E9 [1]): no effect
anti-PRV activity (harmine) (PRV): excellent

Cc1cc(/C=C2\SC(=O)N(c3ccccc3)C2=O)c(C)n1-c1cccnc1 [iCRT14]
effect on the proliferation of NDV (NDV F48E9 [1]): no effect

COC[C@H]1OC(=O)c2coc3c2[C@@]1(C)C1=C(C3=O)[C@@H]2CCC(=O)[C@@]2(C)C[C@H]1OC(C)=O [wortmannin]
amounts of β-catenin in NDV-infected cells (β-catenin): no effect
